Assay results as given in the supplement of paper PMC8612539.
In brackets after ≈: the same amount, converted by molar mass.

System: Histophilus somni
Experiment: minimum inhibitory concentration (MIC)
Protocol: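 Broth microdilution MIC (Sensititre BOPO7F bovine plate, CLSI methods) of 19 antimicrobials against field isolates of P. multocida, M. haemolytica, H. somni (deep nasopharyngeal swabs) and E. coli, Enterococcus spp. (rectal swabs) from weaned dairy heifers. Incubation 16-24 h at 35 C. MIC is the lowest concentration preventing visible growth. Values with <= or > lie at the tested range limits. Trimethoprim-sulfamethoxazole is given as the trimethoprim component of a 1:19 mixture.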

CN(C)[C@@H]1C(O)=C(C(N)=O)C(=O)[C@@]2(O)C(O)=C3C(=O)c4c(O)cccc4[C@@](C)(O)[C@H]3C[C@@H]12 [Tetracycline]
Conditions	minimum inhibitory concentration [µg/mL]
isolate (source animal id): 3	4 (≈ 9 µM)
isolate (source animal id): 4	4 (≈ 9 µM)
isolate (source animal id): 7	8 (≈ 18 µM)
isolate (source animal id): 14	8 (≈ 18 µM)
isolate (source animal id): 15	4 (≈ 9 µM)
isolate (source animal id): 17	8 (≈ 18 µM)
isolate (source animal id): 18	8 (≈ 18 µM)
isolate (source animal id): 20	4 (≈ 9 µM)
isolate (source animal id): 23	≤ 0.5
isolate (source animal id): 45	> 8
isolate (source animal id): 53	> 8
isolate (source animal id): 83	2 (≈ 4.5 µM)
isolate (source animal id): 88	8 (≈ 18 µM)
isolate (source animal id): 92	8 (≈ 18 µM)
isolate (source animal id): 93	8 (≈ 18 µM)
isolate (source animal id): 99	4 (≈ 9 µM)
isolate (source animal id): 100	4 (≈ 9 µM)
isolate (source animal id): 105	2 (≈ 4.5 µM)
isolate (source animal id): 107	4 (≈ 9 µM)
isolate (source animal id): 108	8 (≈ 18 µM)
isolate (source animal id): 109	4 (≈ 9 µM)
isolate (source animal id): 110	4 (≈ 9 µM)
isolate (source animal id): 117	8 (≈ 18 µM)
isolate (source animal id): 121	8 (≈ 18 µM)
isolate (source animal id): 123	4 (≈ 9 µM)
isolate (source animal id): 124	2 (≈ 4.5 µM)
isolate (source animal id): 127	1 (≈ 2.25 µM)
isolate (source animal id): 128	> 8
isolate (source animal id): 130	2 (≈ 4.5 µM)
isolate (source animal id): 132	> 8
isolate (source animal id): 135	> 8
isolate (source animal id): 140	> 8
isolate (source animal id): 141	≤ 0.5
isolate (source animal id): 142	1 (≈ 2.25 µM)
isolate (source animal id): 144	2 (≈ 4.5 µM)
isolate (source animal id): 146	> 8
isolate (source animal id): 147	1 (≈ 2.25 µM)
isolate (source animal id): 151	> 8
isolate (source animal id): 153	4 (≈ 9 µM)
isolate (source animal id): 154	1 (≈ 2.25 µM)
isolate (source animal id): 156	2 (≈ 4.5 µM)
isolate (source animal id): 157	4 (≈ 9 µM)
isolate (source animal id): 176	4 (≈ 9 µM)
isolate (source animal id): 183	4 (≈ 9 µM)
isolate (source animal id): 186	4 (≈ 9 µM)
isolate (source animal id): 196	4 (≈ 9 µM)
isolate (source animal id): 198	2 (≈ 4.5 µM)
isolate (source animal id): 200	4 (≈ 9 µM)
isolate (source animal id): 206	4 (≈ 9 µM)
isolate (source animal id): 208	4 (≈ 9 µM)
isolate (source animal id): 210	1 (≈ 2.25 µM)
isolate (source animal id): 212	1 (≈ 2.25 µM)
isolate (source animal id): 215	4 (≈ 9 µM)
isolate (source animal id): 216	4 (≈ 9 µM)
isolate (source animal id): 218	2 (≈ 4.5 µM)
isolate (source animal id): 219	2 (≈ 4.5 µM)
isolate (source animal id): 224	4 (≈ 9 µM)
isolate (source animal id): 228	8 (≈ 18 µM)
isolate (source animal id): 230	4 (≈ 9 µM)
isolate (source animal id): 233	> 8
isolate (source animal id): 238	≤ 0.5
isolate (source animal id): 239	> 8
isolate (source animal id): 241	4 (≈ 9 µM)
isolate (source animal id): 242	4 (≈ 9 µM)
isolate (source animal id): 243	≤ 0.5
isolate (source animal id): 245	> 8
isolate (source animal id): 246	≤ 0.5
isolate (source animal id): 247	4 (≈ 9 µM)
isolate (source animal id): 248	≤ 0.5
isolate (source animal id): 250	8 (≈ 18 µM)
isolate (source animal id): 251	> 8
isolate (source animal id): 252	4 (≈ 9 µM)
isolate (source animal id): 254	4 (≈ 9 µM)
isolate (source animal id): 258	4 (≈ 9 µM)
isolate (source animal id): 259	4 (≈ 9 µM)
isolate (source animal id): 262	> 8
isolate (source animal id): 264	1 (≈ 2.25 µM)
isolate (source animal id): 265	> 8
isolate (source animal id): 266	2 (≈ 4.5 µM)
isolate (source animal id): 267	2 (≈ 4.5 µM)
isolate (source animal id): 269	1 (≈ 2.25 µM)
isolate (source animal id): 271	2 (≈ 4.5 µM)
isolate (source animal id): 272	> 8
isolate (source animal id): 274	> 8
isolate (source animal id): 276	≤ 0.5
isolate (source animal id): 278	2 (≈ 4.5 µM)
isolate (source animal id): 280	> 8
isolate (source animal id): 281	2 (≈ 4.5 µM)
isolate (source animal id): 283	2 (≈ 4.5 µM)
isolate (source animal id): 288	4 (≈ 9 µM)
isolate (source animal id): 291	8 (≈ 18 µM)
isolate (source animal id): 292	2 (≈ 4.5 µM)
isolate (source animal id): 296	1 (≈ 2.25 µM)
isolate (source animal id): 306	2 (≈ 4.5 µM)
isolate (source animal id): 336	2 (≈ 4.5 µM)
isolate (source animal id): 337	2 (≈ 4.5 µM)
isolate (source animal id): 341	1 (≈ 2.25 µM)

C=C[C@]1(C)C[C@@H](OC(=O)CSCCN(CC)CC)[C@]2(C)[C@H](C)CC[C@]3(CCC(=O)[C@H]32)[C@@H](C)[C@@H]1O [Tiamulin]
Conditions	minimum inhibitory concentration [µg/mL]
isolate (source animal id): 3	1 (≈ 2.03 µM)
isolate (source animal id): 4	1 (≈ 2.03 µM)
isolate (source animal id): 7	1 (≈ 2.03 µM)
isolate (source animal id): 14	2 (≈ 4.05 µM)
isolate (source animal id): 15	1 (≈ 2.03 µM)
isolate (source animal id): 17	1 (≈ 2.03 µM)
isolate (source animal id): 18	1 (≈ 2.03 µM)
isolate (source animal id): 20	≤ 0.5
isolate (source animal id): 23	1 (≈ 2.03 µM)
isolate (source animal id): 45	2 (≈ 4.05 µM)
isolate (source animal id): 53	2 (≈ 4.05 µM)
isolate (source animal id): 83	1 (≈ 2.03 µM)
isolate (source animal id): 88	1 (≈ 2.03 µM)
isolate (source animal id): 92	2 (≈ 4.05 µM)
isolate (source animal id): 93	1 (≈ 2.03 µM)
isolate (source animal id): 99	2 (≈ 4.05 µM)
isolate (source animal id): 100	2 (≈ 4.05 µM)
isolate (source animal id): 105	1 (≈ 2.03 µM)
isolate (source animal id): 107	2 (≈ 4.05 µM)
isolate (source animal id): 108	2 (≈ 4.05 µM)
isolate (source animal id): 109	2 (≈ 4.05 µM)
isolate (source animal id): 110	2 (≈ 4.05 µM)
isolate (source animal id): 117	1 (≈ 2.03 µM)
isolate (source animal id): 121	1 (≈ 2.03 µM)
isolate (source animal id): 123	1 (≈ 2.03 µM)
isolate (source animal id): 124	2 (≈ 4.05 µM)
isolate (source animal id): 127	1 (≈ 2.03 µM)
isolate (source animal id): 128	1 (≈ 2.03 µM)
isolate (source animal id): 130	1 (≈ 2.03 µM)
isolate (source animal id): 132	2 (≈ 4.05 µM)
isolate (source animal id): 135	1 (≈ 2.03 µM)
isolate (source animal id): 140	2 (≈ 4.05 µM)
isolate (source animal id): 141	2 (≈ 4.05 µM)
isolate (source animal id): 142	2 (≈ 4.05 µM)
isolate (source animal id): 144	2 (≈ 4.05 µM)
isolate (source animal id): 146	1 (≈ 2.03 µM)
isolate (source animal id): 147	2 (≈ 4.05 µM)
isolate (source animal id): 151	1 (≈ 2.03 µM)
isolate (source animal id): 153	2 (≈ 4.05 µM)
isolate (source animal id): 154	2 (≈ 4.05 µM)
isolate (source animal id): 156	2 (≈ 4.05 µM)
isolate (source animal id): 157	2 (≈ 4.05 µM)
isolate (source animal id): 176	4 (≈ 8.1 µM)
isolate (source animal id): 183	2 (≈ 4.05 µM)
isolate (source animal id): 186	2 (≈ 4.05 µM)
isolate (source animal id): 196	2 (≈ 4.05 µM)
isolate (source animal id): 198	1 (≈ 2.03 µM)
isolate (source animal id): 200	2 (≈ 4.05 µM)
isolate (source animal id): 206	1 (≈ 2.03 µM)
isolate (source animal id): 208	2 (≈ 4.05 µM)
isolate (source animal id): 210	≤ 0.5
isolate (source animal id): 212	≤ 0.5
isolate (source animal id): 215	2 (≈ 4.05 µM)
isolate (source animal id): 216	2 (≈ 4.05 µM)
isolate (source animal id): 218	2 (≈ 4.05 µM)
isolate (source animal id): 219	2 (≈ 4.05 µM)
isolate (source animal id): 224	2 (≈ 4.05 µM)
isolate (source animal id): 228	2 (≈ 4.05 µM)
isolate (source animal id): 230	2 (≈ 4.05 µM)
isolate (source animal id): 233	1 (≈ 2.03 µM)
isolate (source animal id): 238	≤ 0.5
isolate (source animal id): 239	2 (≈ 4.05 µM)
isolate (source animal id): 241	2 (≈ 4.05 µM)
isolate (source animal id): 242	2 (≈ 4.05 µM)
isolate (source animal id): 243	2 (≈ 4.05 µM)
isolate (source animal id): 245	2 (≈ 4.05 µM)
isolate (source animal id): 246	4 (≈ 8.1 µM)
isolate (source animal id): 247	2 (≈ 4.05 µM)
isolate (source animal id): 248	1 (≈ 2.03 µM)
isolate (source animal id): 250	2 (≈ 4.05 µM)
isolate (source animal id): 251	2 (≈ 4.05 µM)
isolate (source animal id): 252	4 (≈ 8.1 µM)
isolate (source animal id): 254	2 (≈ 4.05 µM)
isolate (source animal id): 258	2 (≈ 4.05 µM)
isolate (source animal id): 259	1 (≈ 2.03 µM)
isolate (source animal id): 262	1 (≈ 2.03 µM)
isolate (source animal id): 264	≤ 0.5
isolate (source animal id): 265	1 (≈ 2.03 µM)
isolate (source animal id): 266	1 (≈ 2.03 µM)
isolate (source animal id): 267	1 (≈ 2.03 µM)
isolate (source animal id): 269	1 (≈ 2.03 µM)
isolate (source animal id): 271	1 (≈ 2.03 µM)
isolate (source animal id): 272	1 (≈ 2.03 µM)
isolate (source animal id): 274	1 (≈ 2.03 µM)
isolate (source animal id): 276	1 (≈ 2.03 µM)
isolate (source animal id): 278	1 (≈ 2.03 µM)
isolate (source animal id): 280	≤ 0.5
isolate (source animal id): 281	2 (≈ 4.05 µM)
isolate (source animal id): 283	1 (≈ 2.03 µM)
isolate (source animal id): 288	1 (≈ 2.03 µM)
isolate (source animal id): 291	1 (≈ 2.03 µM)
isolate (source animal id): 292	1 (≈ 2.03 µM)
isolate (source animal id): 296	≤ 0.5
isolate (source animal id): 306	1 (≈ 2.03 µM)
isolate (source animal id): 336	1 (≈ 2.03 µM)
isolate (source animal id): 337	1 (≈ 2.03 µM)
isolate (source animal id): 341	1 (≈ 2.03 µM)
